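Growth conditions: 96-well plates. Treatment: test compound, 48 hours, 5 concentrations. Analysis: linear interpolation between bracketing concentrations; unreached endpoints set to highest concentration. Here, GI50 denotes the concentration required for 50% inhibition of growth.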 Activity calls are given as the source filed them. Rule as the data show it: active = GI50 up to about 1.1 µM and inactive = higher.
What was measured:
Experiment in all cases: growth of human tumour cells (NCI), 48 h
UO-31 = test system: UO-31
HT-29 = test system: HT-29
SK-MEL-5 = test system: SK-MEL-5
IGROV-1 = test system: IGROV-1
ACHN = test system: ACHN
HL-60 = test system: HL-60
COLO 205 = test system: COLO 205
CAKI-1 = test system: CAKI-1
NCI-H460 = test system: NCI-H460
SF-295 = test system: SF-295
DU-145 = test system: DU-145
A549 = test system: A549
Malme-3M = test system: Malme-3M
DLD-1 = test system: DLD-1
SK-MEL-28 = test system: SK-MEL-28
786-0 = test system: 786-0
EKVX = test system: EKVX
TK-10 = test system: TK-10
HCT-15 = test system: HCT-15
SR = test system: SR

SMILES | GI50 (UO-31) | GI50 (HT-29) | GI50 (SK-MEL-5) | GI50 (IGROV-1) | GI50 (ACHN) | GI50 (HL-60) | GI50 (COLO 205) | GI50 (CAKI-1) | GI50 (NCI-H460) | GI50 (SF-295) | GI50 (DU-145) | GI50 (A549) | GI50 (Malme-3M) | GI50 (DLD-1) | GI50 (SK-MEL-28) | GI50 (786-0) | GI50 (EKVX) | GI50 (TK-10) | GI50 (HCT-15) [µM] | GI50 (SR)
C=C1C(=O)C23C(O)C1CC[C@H]2C12CCCC(C)(COC(C)=O)[C@H]1[C@H](O)[C@]3(O)OC2 (some centres not stated) | 1.77 µM (inactive) | 1.8 µM (inactive) | 1.72 µM (inactive) | 2.08 µM (inactive) | 1.51 µM (inactive) | 0.279 µM (active) | 1.46 µM (inactive) | 1.16 µM (inactive) | 2.24 µM (inactive) | 0.891 µM (active) | 4.3 µM (inactive) | 3.94 µM (inactive) | 1.42 µM (inactive) | 0.577 µM (active) | 1.14 µM (inactive) | 0.966 µM (active) | 4.01 µM (inactive) | 1.63 µM (inactive) | 0.817 | –
O=[N+]([O-])c1nccn1COCCI | > 100 µM (inactive) | > 100 µM (inactive) | > 100 µM (inactive) | > 100 µM (inactive) | > 100 µM (inactive) | > 100 µM (inactive) | > 100 µM (inactive) | > 100 µM (inactive) | > 100 µM (inactive) | > 100 µM (inactive) | – | > 100 µM (inactive) | > 100 µM (inactive) | > 100 µM (inactive) | > 100 µM (inactive) | > 100 µM (inactive) | > 100 µM (inactive) | > 100 µM (inactive) | > 100 | > 100 µM (inactive)
CC(=O)c1cc2c3c(c1)c1cc4c(cc1c(=O)n3CC2)OCO4 | 8.11 µM (inactive) | 19.4 µM (inactive) | 31 µM (inactive) | 28.8 µM (inactive) | 16.9 µM (inactive) | 39.3 µM (inactive) | 29.6 µM (inactive) | 20.8 µM (inactive) | 11.2 µM (inactive) | 26.9 µM (inactive) | – | 40.1 µM (inactive) | 23.3 µM (inactive) | 15.2 µM (inactive) | 65.3 µM (inactive) | 13.4 µM (inactive) | 46.2 µM (inactive) | 21.2 µM (inactive) | 19.8 | 4.32 µM (inactive)

Reference: ChEMBL document CHEMBL1201862, “PubChem BioAssay data set” (2004)
